Reference: patent US12421208B2, “Chemical compounds” (ASTRAZENECA AB, priority 2020, dated 2025)

Key:
[1] = target: hERG (Homo sapiens, UniProt Q12809); test: hERG inhibition
Description: It is well known that blockade of the cardiac ion channel coded by human ether-n-gogo-related gene (hERG) is a risk factor in drug discovery and development. Blockage of hERG can cause safety problems such as cardiac arrhythmia. Advantageously, the compounds of Formula I have low hERG activity.

[2] = tested on: BRCA2 (−/−) DLD1 cells; test: PARP proliferation assay (7 day compound dosing), BRCA2 (−/−) DLD1; type: cell-based; conditions: Homo sapiens, DLD-1, 168 h, BRCA2 −/− DLD-1 cells, 7 day dosing; read-out: BRCA2 −/− DLD-1 prolif. 7 d IC50
Experimental: (§1) PARP Proliferation Assay (7 Day Compound Dosing)
(§2) DLD1 and BRCA2 (−/−) DLD1 cells were harvested to a density of 5000 cells/ml and 2.5E4 cells/ml respectively in complete media, 40 μL/well seeded into 384-well plates (Greiner, Kremsmunster, Austria; 781090) using a Multidrop Combi then incubated at 37° C., 5% CO2 overnight. Next day (Day 1) using a Multidrop Combi add sytoxgreen (5 ul, 2 uM) and saponin (10 ul, 0.25% stock) to a day 0 plate, seal the plate using a black adhesive lid and incubate for >3 h at rt. Cells were imaged using Cell Insight (Thermo Fisher) fitted with a 4× objective. Test compounds are added using an Echo 555 and placed in incubator maintained at 37° C., 5% CO2 and incubated for 7 days. On Day 8 add sytox green (5 ul, 2 uM) and then saponin (10 ul, 0.25% stock) to plates, seal the plate using a black adhesive lid and incubate for >3 h at rt. Read all cells on the Cell Insight with 4× Objective. The rate of proliferation is determined in Genedata by assessing the total cell number output from the Cell Insight for Day 0 and Day 8 plates.

[3] = tested on: DLD1 cells; test: PARP proliferation assay (7 day compound dosing), WT DLD1; type: cell-based; conditions: Homo sapiens, 168 h; WT DLD-1 cells, 7 day dosing; read-out: WT DLD-1 prolif. 7 d IC50
Experimental: as §1, §2

Chain of hERG (Q12809 whole entry): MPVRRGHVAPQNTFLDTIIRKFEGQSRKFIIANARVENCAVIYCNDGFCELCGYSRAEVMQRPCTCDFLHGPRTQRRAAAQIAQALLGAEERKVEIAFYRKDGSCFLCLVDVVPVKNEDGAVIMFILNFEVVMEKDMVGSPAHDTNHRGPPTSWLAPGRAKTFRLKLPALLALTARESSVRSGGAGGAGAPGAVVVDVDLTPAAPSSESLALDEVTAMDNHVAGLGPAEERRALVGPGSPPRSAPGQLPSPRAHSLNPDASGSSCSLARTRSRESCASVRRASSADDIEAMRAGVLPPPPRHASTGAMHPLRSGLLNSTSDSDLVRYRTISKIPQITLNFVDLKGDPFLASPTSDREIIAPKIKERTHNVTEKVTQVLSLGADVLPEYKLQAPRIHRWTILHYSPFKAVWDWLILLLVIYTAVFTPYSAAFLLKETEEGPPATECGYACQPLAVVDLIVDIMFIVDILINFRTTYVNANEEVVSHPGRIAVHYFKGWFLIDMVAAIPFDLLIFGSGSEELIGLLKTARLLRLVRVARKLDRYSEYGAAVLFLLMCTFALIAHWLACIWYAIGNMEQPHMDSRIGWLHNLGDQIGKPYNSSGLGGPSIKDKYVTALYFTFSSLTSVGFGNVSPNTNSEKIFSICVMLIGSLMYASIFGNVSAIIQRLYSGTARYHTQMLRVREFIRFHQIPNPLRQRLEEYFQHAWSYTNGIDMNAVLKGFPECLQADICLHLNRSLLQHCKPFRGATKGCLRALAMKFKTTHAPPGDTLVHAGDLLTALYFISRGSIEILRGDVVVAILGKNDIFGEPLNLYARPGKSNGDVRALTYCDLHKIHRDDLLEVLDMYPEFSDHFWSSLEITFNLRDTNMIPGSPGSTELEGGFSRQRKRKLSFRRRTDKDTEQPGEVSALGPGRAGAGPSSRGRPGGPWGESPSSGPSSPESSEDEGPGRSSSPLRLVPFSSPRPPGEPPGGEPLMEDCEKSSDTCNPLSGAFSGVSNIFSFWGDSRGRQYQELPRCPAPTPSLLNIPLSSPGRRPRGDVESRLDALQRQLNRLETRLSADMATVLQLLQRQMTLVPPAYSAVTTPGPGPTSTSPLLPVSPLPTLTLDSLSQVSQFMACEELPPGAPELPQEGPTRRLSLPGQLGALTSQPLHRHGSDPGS

Q: What does the source list for CNC(=O)c1ccc(N2CCN(Cc3ccc4nc(C)c(=O)[nH]c4c3C)CC2)c(F)n1 [Example 1, 5-[4-[(2,5-dimethyl-3-oxo-4H-quinoxalin-6-yl)methyl]piperazin-1-yl]-6-fluoro-N-methyl-pyridine-2-carboxamide]?
A: IC50 [1]: > 40000 nM; IC50 [2]: 14 nM; IC50 [3]: 24000 nM

Q: With CNC(=O)c1ccc(N2CCN(Cc3ccc4nc(C)c(=O)[nH]c4c3C)CC2)cn1 [Example 2, 5-[4-[(2,5-dimethyl-3-oxo-4H-quinoxalin-6-yl)methyl]piperazin-1-yl]-N-methyl-pyridine-2-carboxamide] as the compound, how does the IC50 [1] read?
A: > 40000 nM

Q: And the IC50 [2]?
A: 734 nM

Q: CNC(=O)c1ccc(N2CCN(Cc3ccc4nc(C)c(=O)[nH]c4c3C)CC2)c(Cl)n1 [Example 3, 6-chloro-5-[4-[(2,5-dimethyl-3-oxo-4H-quinoxalin-6-yl)methyl]piperazin-1-yl]-N-methyl-pyridine-2-carboxamide] was tested. Which IC50 [1] did it give?
A: > 40000 nM

Q: And the IC50 [2]?
A: 8 nM

Q: What about the IC50 [3] of the same compound?
A: 25000 nM

Q: For CNC(=O)c1ccc(N2CCN(Cc3ccc4nc(C)c(=O)[nH]c4c3C)CC2)c(C)n1 [Example 4, 5-[4-[(2,5-dimethyl-3-oxo-4H-quinoxalin-6-yl)methyl]piperazin-1-yl]-N,6-dimethyl-pyridine-2-carboxamide], which IC50 [1] is on record?
A: > 40000 nM

Q: And the IC50 [2]?
A: 81 nM

Q: What about the IC50 [3] of the same compound?
A: > 14000 nM

Q: Cc1nc2ccc(CN3CCN(c4ccc(C(N)=O)nc4F)CC3)c(C)c2[nH]c1=O [Example 5, 5-[4-[(2,5-dimethyl-3-oxo-4H-quinoxalin-6-yl)methyl]piperazin-1-yl]-6-fluoro-pyridine-2-carboxamide] was tested. Which IC50 [2] did it give?
A: 2890 nM

Q: With Cc1nc(C(N)=O)ccc1N1CCN(Cc2ccc3nc(C)c(=O)[nH]c3c2C)CC1 [Example 7, 5-[4-[(2,5-dimethyl-3-oxo-4H-quinoxalin-6-yl)methyl]piperazin-1-yl]-6-methyl-pyridine-2-carboxamide] as the compound, how does the IC50 [2] read?
A: 8430 nM

Q: What about the IC50 [3] of the same compound?
A: > 30000 nM

Q: CNC(=O)c1ccc(N2CCN(Cc3ccc4nc(C(C)(F)F)c(=O)[nH]c4c3F)CC2)c(C)n1 [Example 19, 5-[4-[[2-(1,1-difluoroethyl)-5-fluoro-3-oxo-4H-quinoxalin-6-yl]methyl]piperazin-1-yl]-N,6-dimethyl-pyridine-2-carboxamide] was tested. Which IC50 [1] did it give?
A: > 40000 nM

Q: And the IC50 [2]?
A: 6 nM

Q: CNC(=O)c1ccc(N2CCN(Cc3ccc4nc(C)c(=O)[nH]c4c3F)CC2)c(C(F)F)n1 [Example 21, 6-(difluoromethyl)-5-[4-[(5-fluoro-2-methyl-3-oxo-4H-quinoxalin-6-yl)methyl]piperazin-1-yl]-N-methyl-pyridine-2-carboxamide] was tested. Which IC50 [1] did it give?
A: > 40000 nM

Q: What about the IC50 [2] of the same compound?
A: 1420 nM

Q: CCc1nc2ccc(CN3CCN(c4ccc(C(N)=O)nc4)CC3)c(F)c2[nH]c1=O [Example 25, 5-[4-[(2-ethyl-5-fluoro-3-oxo-4H-quinoxalin-6-yl)methyl]piperazin-1-yl]pyridine-2-carboxamide] was tested. Which IC50 [2] did it give?
A: 297 nM

Q: What does the source list for CCc1nc2ccc(CN3CCN(c4ccc(C(=O)NC)nc4Cl)CC3)c(F)c2[nH]c1=O [Example 28, 6-chloro-5-[4-[(2-ethyl-5-fluoro-3-oxo-4H-quinoxalin-6-yl)methyl]piperazin-1-yl]-N-methyl-pyridine-2-carboxamide]?
A: IC50 [1]: > 38000 nM; IC50 [2]: 4 nM

Q: With CNC(=O)c1ccc(N2CCN(Cc3ccc4nc(C)c(=O)[nH]c4c3F)CC2)c(C)n1 [Example 31, 5-[4-[(5-fluoro-2-methyl-3-oxo-4H-quinoxalin-6-yl)methyl]piperazin-1-yl]-N,6-dimethyl-pyridine-2-carboxamide] as the compound, how does the IC50 [1] read?
A: > 40000 nM

Q: And the IC50 [3]?
A: > 30000 nM

Q: How did the IC50 [2] turn out when CNC(=O)c1ccc(N2CCN(Cc3ccc4ncc(=O)[nH]c4c3F)CC2)cn1 [Example 33, 5-[4-[(5-fluoro-3-oxo-4H-quinoxalin-6-yl)methyl]piperazin-1-yl]-N-methyl-pyridine-2-carboxamide] was run?
A: > 30000 nM

Q: With CNC(=O)c1ccc(N2CCN(Cc3ccc4ncc(=O)[nH]c4c3F)CC2)c(Cl)n1 [Example 34, 6-chloro-5-[4-[(5-fluoro-3-oxo-4H-quinoxalin-6-yl)methyl]piperazin-1-yl]-N-methyl-pyridine-2-carboxamide] as the compound, how does the IC50 [2] read?
A: 8440 nM

Q: Which results are given for CNC(=O)c1ccc(N2CCN(Cc3ccc4ncc(=O)[nH]c4c3F)CC2)c(C)n1 [Example 35, 5-[4-[(5-fluoro-3-oxo-4H-quinoxalin-6-yl)methyl]piperazin-1-yl]-N,6-dimethyl-pyridine-2-carboxamide]?
A: IC50 [2]: 10300 nM; IC50 [3]: > 30000 nM

Q: CNC(=O)c1ccc(N2CCN(Cc3ccc4ncc(=O)[nH]c4c3F)CC2)c(F)n1 [Example 36, 6-fluoro-5-[4-[(5-fluoro-3-oxo-4H-quinoxalin-6-yl)methyl]piperazin-1-yl]-N-methyl-pyridine-2-carboxamide] was tested. Which IC50 [2] did it give?
A: 16200 nM

Q: Which IC50 [2] does the source give for CNC(=O)c1ccc(N2CCN(Cc3ccc4nc(C(F)F)c(=O)[nH]c4c3F)CC2)c(C)n1 [Example 37, 5-[4-[[2-(difluoromethyl)-5-fluoro-3-oxo-4H-quinoxalin-6-yl]methyl]piperazin-1-yl]-N,6-dimethyl-pyridine-2-carboxamide] here?
A: 10 nM

Q: Which IC50 [1] does the source give for CNC(=O)c1ccc(N2CCN(Cc3ccc4nc(OC)c(=O)[nH]c4c3F)CC2)cn1 [Example 38, 5-[4-[(5-fluoro-2-methoxy-3-oxo-4H-quinoxalin-6-yl)methyl]piperazin-1-yl]-N-methyl-pyridine-2-carboxamide] here?
A: > 40000 nM

Q: And the IC50 [2]?
A: 547 nM

Q: CNC(=O)c1ccc(N2CCN(Cc3ccc4nc(OC)c(=O)[nH]c4c3F)CC2)c(F)n1 [Example 39, 6-fluoro-5-[4-[(5-fluoro-2-methoxy-3-oxo-4H-quinoxalin-6-yl)methyl]piperazin-1-yl]-N-methyl-pyridine-2-carboxamide] was tested. Which IC50 [1] did it give?
A: > 40000 nM

Q: What about the IC50 [2] of the same compound?
A: 8 nM

Q: Which results are given for CNC(=O)c1ccc(N2CCN(Cc3ccc4nc(OC)c(=O)[nH]c4c3F)CC2)c(C)n1 [Example 40, 5-[4-[(5-fluoro-2-methoxy-3-oxo-4H-quinoxalin-6-yl)methyl]piperazin-1-yl]-N,6-dimethyl-pyridine-2-carboxamide]?
A: IC50 [1]: > 40000 nM; IC50 [2]: 7 nM

Q: For CNC(=O)c1ccc(N2CCN(Cc3ccc4nc(OC)c(=O)[nH]c4c3F)CC2)c(Cl)n1 [Example 41, 6-chloro-5-[4-[(5-fluoro-2-methoxy-3-oxo-4H-quinoxalin-6-yl)methyl]piperazin-1-yl]-N-methyl-pyridine-2-carboxamide], which IC50 [1] is on record?
A: > 40000 nM

Q: And the IC50 [2]?
A: 7 nM

Q: Which IC50 [2] does the source give for CCc1nc2ccc(CN3CCN(c4ccc(C(=O)NC)nc4C)CC3)c(C)c2[nH]c1=O [Example 42, 5-[4-[(2-ethyl-5-methyl-3-oxo-4H-quinoxalin-6-yl)methyl]piperazin-1-yl]-N,6-dimethyl-pyridine-2-carboxamide] here?
A: 6 nM

Q: CCc1nc2ccc(CN3CCN(c4ccc(C(=O)NC)nc4F)CC3)c(C)c2[nH]c1=O [Example 43, 5-[4-[(2-ethyl-5-methyl-3-oxo-4H-quinoxalin-6-yl)methyl]piperazin-1-yl]-6-fluoro-N-methyl-pyridine-2-carboxamide] was tested. Which IC50 [2] did it give?
A: 10 nM

Q: Which IC50 [2] does the source give for CCc1nc2ccc(CN3CCN(c4ccc(C(=O)NC)nc4)CC3)c(C)c2[nH]c1=O [Example 44, 5-[4-[(2-ethyl-5-methyl-3-oxo-4H-quinoxalin-6-yl)methyl]piperazin-1-yl]-N-methyl-pyridine-2-carboxamide] here?
A: > 30000 nM

Q: CCNC(=O)c1ccc(N2CCN(Cc3ccc4nc(C)c(=O)[nH]c4c3F)CC2)c(F)n1 [Example 45, N-ethyl-6-fluoro-5-[4-[(5-fluoro-2-methyl-3-oxo-4H-quinoxalin-6-yl)methyl]piperazin-1-yl]pyridine-2-carboxamide] was tested. Which IC50 [2] did it give?
A: 6 nM

Q: With CCNC(=O)c1ccc(N2CCN(Cc3ccc4nc(C)c(=O)[nH]c4c3F)CC2)c(C)n1 [Example 46, N-ethyl-5-[4-[(5-fluoro-2-methyl-3-oxo-4H-quinoxalin-6-yl)methyl]piperazin-1-yl]-6-methyl-pyridine-2-carboxamide] as the compound, how does the IC50 [2] read?
A: 13 nM

Q: With CNC(=O)c1ccc(N2CCN(Cc3ccc4nc(C(F)(F)F)c(=O)[nH]c4c3F)CC2)c(C)n1 [Example 47, 5-[4-[[5-fluoro-3-oxo-2-(trifluoromethyl)-4H-quinoxalin-6-yl]methyl]piperazin-1-yl]-N,6-dimethyl-pyridine-2-carboxamide] as the compound, how does the IC50 [1] read?
A: > 40000 nM

Q: What about the IC50 [2] of the same compound?
A: 58 nM

Q: Which results are given for CNC(=O)c1ccc(N2CCN(Cc3ccc4nc(C(F)(F)F)c(=O)[nH]c4c3F)CC2)c(Cl)n1 [Example 49, 6-chloro-5-[4-[[5-fluoro-3-oxo-2-(trifluoromethyl)-4H-quinoxalin-6-yl]methyl]piperazin-1-yl]-N-methyl-pyridine-2-carboxamide]?
A: IC50 [1]: > 40000 nM; IC50 [2]: 41 nM

Q: For CNC(=O)c1ccc(N2CCN(Cc3ccc4nc(C(F)(F)F)c(=O)[nH]c4c3F)CC2)cn1 [Example 50, 5-[4-[[5-fluoro-3-oxo-2-(trifluoromethyl)-4H-quinoxalin-6-yl]methyl]piperazin-1-yl]-N-methyl-pyridine-2-carboxamide], which IC50 [1] is on record?
A: > 40000 nM

Q: What about the IC50 [2] of the same compound?
A: 136 nM
